Source: US12042481B2, “Use of (1R,5S)-(+)-1-(naphthalen-2-yl)-3-azabicyclo[3.1.0]hexane in the treatment of conditions affected by monoamine neurotransmitters” (priority 2011, dated 2024)

Columns and labels:
[1] = tested on: monoamine uptake transporters; assay: Microdialysis in rat prefrontal cortex (extracellular NE, DA, 5-HT); format: in vivo
Description: (§1) To evaluate the effect of (1R,5S)-(+)-1-(naphthalen-2-yl)-3-azabicyclo[3.1.0]hexane on monoamine uptake transporters in vivo, microdialysis studies were performed in rat brain regions.
(§2) Microdialysis studies were conducted using male Wistar rats (250-300 g) bred at the Institute of Pharmacology, the Polish Academy of Sciences, Krakow, Poland. The rats (250-300 g) were housed on a 12 h/12 h light/dark cycle at a constant temperature and humidity, and were provided with food and water ad libitum. The microdialysis procedure has been previously described (Popik et al., 2006). Briefly, the rats were anaesthetized with ketamine (75 mg/kg IM) and xylazine (10 mg/kg IM), placed in a stereotaxic apparatus (David Kopf Instruments, Tujunga, CA, USA) with their skulls exposed. Small holes were drilled in the skull for insertion of the vertical microdialysis probes into the prefrontal cortex and striatum, respectively using the following coordinates: 2.9 mm anterior from the bregma, 0.8 mm lateral from the sagittal suture and −4.5 ventral from the dura surface (prefrontal cortex); 1.8 mm anterior from the bregma, 2.7 mm lateral from the sagittal suture and −7.0 mm ventral from the dura surface (striatum) (Paxinos and Watson, 1998). Microdialysis probes were constructed by inserting two fused silica tubes (30 and 35 mm long, 150 μm o.d.; Polymicro Technologies Inc., Phoenix, AZ, USA) into a microdialysis fiber (220 μm o.d.; AN69, Hospal, Bologna, Italy). The tube assembly was placed in a stainless steel cannula (22 G, 10 mm) forming the shaft of the probe. Portions of the inlet and outlet tubes were individually placed inside polyethylene PE-10 tubing and were glued for protection. The free end of the dialysis fibre was sealed, and 3 mm of the exposed length used for dialysis in prefrontal cortex and 4 mm for striatum. One day after the surgery and probe implantation, the inlet of the dialysis probes was connected to a syringe pump (BAS, IN, USA) which delivered an artificial cerebrospinal fluid (aCSF) composed of [in mM]: NaCl 145, KCl 2.7, MgCl2 1.0, CaCl2 1.2; pH=7.4 at a flow rate of 1.5 μl/min. After a two hour rinsing period to stabilize the extracellular level of neurotransmitters, 3-4 baseline samples were collected in 20 minute sampling periods. Next, (1R,5S)-(+)-1-(naphthalen-2-yl)-3-azabicyclo[3.1.0]hexane (dissolved in 0.9% saline solution) at doses of 10 or 20 mg/kg intraperioneally (i.p.) was administered to the animals at 4 ml/kg and consequent dialysate fractions were collected every 20 min for 3 hrs. At the end of the experiments the rats were sacrificed and their brains were histologically examined to validate the correct probe placement
Dopamine, and serotonin (5-HT) were analysed by HPLC with electrochemical detection. Chromatography was performed using an LC-10 AD pump (Shimadzu Europa GmbH, Warszawa, Poland), an LC-4B amperometric detector with a cross-flow detector cell (BAS, IN, USA) and BDS-Hypersil C18 analytical column (3×100 mm, 3 μm, Thermo Electron Corp., UK). The mobile phase was composed of 0.1 M monochloracetic acid adjusted to pH=3.7 with 3 M sodium hydroxide, 0.5 mM EDTA, 25 mg/L 1-octanesulfonic acid sodium salt, 5.7% methanol, and 2.5% acetonitrile. The flow rate was 0.5 ml/min, and the applied potential of a 3 mm glassy carbon electrode was +600 mV with a sensitivity of 2 nA/V. Norepinephrine was measured using HPLC system equipped with a P580 pump (Dionex, CA, USA) connected to a BAS injection valve with a 10 μI injection loop and a BDS-Hypersil analytical column (2.0×100 mm, a 3 μm, Thermo Electron Corp., UK). The mobile phase was composed of 0.05 M potassium dihydrogen phosphate (adjusted to pH=3.7 with ortho-phosphoric acid), 0.5 mM EDTA, 150 mg/L 1-octanesulfonic acid sodium salt, 10 mM NaCl, and 1.2% acetonitrile. The flow rate was 180 μl/min. NE in the dialysates was detected with a BAS UniJet radial flow detector cell coupled to a LC-4B amperometric detector (BAS, IN, USA). […]

[2] = tested on: monoamine uptake transporters; assay: Microdialysis in rat striatum (extracellular DA, HVA); format: in vivo
Description: as §1, §2
Dopamine, and serotonin (5-HT) were analysed by HPLC with electrochemical detection. […] The flow rate was 0.5 ml/min, and the applied potential of a 3 mm glassy carbon electrode was +600 mV with a sensitivity of 2 nA/V. Norepinephrine was measured using HPLC system equipped with a P580 pump (Dionex, CA, USA) connected to a BAS injection valve with a 10 μI injection loop and a BDS-Hypersil analytical column (2.0×100 mm, a 3 μm, Thermo Electron Corp., UK). […] NE in the dialysates was detected with a BAS UniJet radial flow detector cell coupled to a LC-4B amperometric detector (BAS, IN, USA). […]

[3] = tested on: male CD-1 (Crl.) derived mice; assay: Mouse tail suspension test; format: in vivo
Description: The behavioral effects of (1R,5S)-(+)-1-(naphthalen-2-yl)-3-azabicyclo[3.1.0]hexane were evaluated in a model predictive of antidepressant activity, the mouse tail suspension test (Cryan and Mombereau, 2004).
For the tail test suspension test, male CD-1 (Crl.) derived mice weighing 20-26 g were provided by BioLasco Taiwan (Charles River Laboratories Technology Licensee). All animals were maintained in a controlled temperature (23° C.-24° C.) and humidity (60%-70%) environment with 12 hours light dark cycles for at least one week prior to use. For the tail suspension test, (1R,5S)-(+)-1-(naphthalen-2-yl)-3-azabicyclo[3.1.0]hexane was administered orally at dose from 10-40 mg/kg p.o. to groups of 10 CD-1 derived male mice by MDS Pharma Services, Taipei, Taiwan 112, R. O. C. (1R,5S)-(+)-1-(naphthalen-2-yl)-3-azabicyclo[3.1.0]hexane was dissolved in 2% Tween 80 and was administered at 10 ml/kg 60 minutes prior to the tail suspension test. During the test, the mice were suspended on the edge of a shelf 58 cm above a table top by adhesive tape placed approximately 1 cm from the tip of the tail. The duration of immobility was recorded for a period of 5 minutes (during 2-7 minutes of the tail suspension). The duration of the effects of (1R,5S)-(+)-1-(naphthalen-2-yl)-3-azabicyclo[3.1.0]hexane was also evaluated in the tail suspension test by varying pretreatment time.

rats = assay: Forced swim test in rats; format: in vivo, rat; conditions: 40 mg/kg p.o., data not shown

c1ccc2cc([C@]34CNC[C@H]3C4)ccc2c1 [(1R,5S)-(+)-1-(naphthalen-2-yl)-3-azabicyclo[3.1.0]hexane]
time by which extracellular 5-HT was markedly increased [1]: ≤ 40 min | peak increase of extracellular NE ([1]; 10 mg/kg i.p.): over 325 % of baseline | peak increase of extracellular NE ([1]; 20 mg/kg i.p.): > 375 % of baseline | duration of increase of extracellular DA ([1]; 10 and 20 mg/kg i.p.): over 3 hours | duration of increase of extracellular NE ([1]; 10 and 20 mg/kg i.p.): over 3 hours | peak increase of extracellular 5-HT ([1]; 10 and 20 mg/kg i.p.): 300 % of baseline | time after administration at which extracellular NE was markedly increased ([1]; 10 and 20 mg/kg i.p.): 40 min | time by which extracellular DA was increased ([1]; 10 and 20 mg/kg i.p.): ≤ 20 min | duration of significant increase of extracellular 5-HT ([1]; both doses 10 and 20 mg/kg i.p.): over 3 hours | peak increase of extracellular DA ([1]; the two doses 10 and 20 mg/kg i.p.): 240-300 % of baseline | duration of effect on extracellular DA [2]: over 3 hours | effect on extracellular concentrations of HVA (metabolite of DA) [2]: decreased | time within which extracellular DA was markedly increased [2]: ≤ 40 min | peak increase of extracellular DA ([2]; 10 mg/kg i.p.): over 275 % of baseline | peak increase of extracellular DA ([2]; 20 mg/kg i.p.): > 375 % of baseline | immobility ([3]; 20 mg/kg p.o., at 30 minutes): 84 % of control | immobility ([3]; 20 mg/kg p.o., at 60 minutes): 82 % of control | immobility ([3]; 20 mg/kg p.o., at 120 minutes): 75 % of control | immobility ([3]; 20 mg/kg p.o., at 240 minutes): 47 % of control | immobility ([3]; 40 mg/kg p.o., 60 minutes prior to test): 87 % of control | duration of effect ([3]; oral): over 4 hours | efficacy compared with desipramine (30 mg/kg p.o.) ([3]; oral): equivalent to the tricyclic antidepressant desipramine | minimal effective dose for reducing time immobilized ([3]; oral, 60 minutes prior to test): 20 mg/kg | immobility in the forced swim test (rats): reduced immobility
